This passage reports inhibition and IC50 results from patent US20080194574A1, “Pyrazine Derivatives As Effective Compounds Against Infectious Diseases” (AXXIMA PHARMACEUTICALS AG, priority 2003, published 2008).

Assay [1] deals with SRPK1 (Homo sapiens, UniProt Q96SB4). As to the kind of experiment: General kinase assay protocol (33P-ATP, MBP substrate, filter plate): SRPK1. The assay is classed as biochemical. Conditions: inhibition at concentration 10 μM; read-out: Inhibitory effect on Target SRPK1. The method, then: (§1) General Assay Protocol for all Kinases
Sequence of SRPK1 (Q96SB4 whole entry, species assumed): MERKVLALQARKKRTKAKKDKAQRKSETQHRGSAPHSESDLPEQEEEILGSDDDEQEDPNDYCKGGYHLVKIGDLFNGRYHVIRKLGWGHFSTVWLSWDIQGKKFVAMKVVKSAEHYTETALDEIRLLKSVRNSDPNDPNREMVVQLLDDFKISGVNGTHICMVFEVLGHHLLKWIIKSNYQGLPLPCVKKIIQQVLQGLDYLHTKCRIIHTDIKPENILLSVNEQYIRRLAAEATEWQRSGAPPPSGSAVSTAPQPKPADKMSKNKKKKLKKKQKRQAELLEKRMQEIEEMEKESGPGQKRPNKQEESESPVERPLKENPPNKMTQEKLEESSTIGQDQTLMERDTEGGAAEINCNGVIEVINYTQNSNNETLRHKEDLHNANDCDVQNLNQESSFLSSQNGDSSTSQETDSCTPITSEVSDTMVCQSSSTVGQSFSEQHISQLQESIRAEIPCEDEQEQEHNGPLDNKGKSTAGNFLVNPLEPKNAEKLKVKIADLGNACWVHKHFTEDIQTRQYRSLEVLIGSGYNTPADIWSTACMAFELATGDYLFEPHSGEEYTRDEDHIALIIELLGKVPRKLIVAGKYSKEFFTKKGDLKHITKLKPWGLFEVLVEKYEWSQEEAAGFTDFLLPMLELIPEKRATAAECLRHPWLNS
(§2) (For UL97 a special UL97 kinase assay was used as described below.)
(§3) Final Assay Concentrations:
(§4) • 1) Add 8 μl 50 μM MBP in Reaction Buffer to each well of Assay Plate • 2) Add 10 μl 500 mM EDTA in H2O to C− wells • 3) Add 8 μl 62.5 μCi/ml Adenosine 5′-[γ-^33P]triphosphate+5 μM ATP in Reaction Buffer to each well • 4) Add 8 μl 5 fold concentrated inhibitor in 5% DMSO in Reaction Buffer to each well except to C− and C+ wells • 5) Add 8 μl 5% DMSO in Reaction Buffer to C− and C+wells • 6) Add 8 μl 5 fold concentrated kinase in Reaction Buffer to each well • 7) Incubate 1 hr at room temperature • 8) Add 10 μl 50 mM EDTA in H2O to each well except to C− wells • 9) Prepare MAPH plates by adding 200 μl 0.75% H3PO4 to each well • 10) Exhaust 0.75% H3PO4 using Millipore vacuum station • 11) Add 60 μl 0.75% H3PO4 to each well of MAPH Filter Plate • 12) Transfer 30 μl sample per well from Assay Plate to corresponding well of MAPH Filter Plate • 13) Incubate 30 min at room temperature • 14) Wash each well of MAPH Filter Plates 3× with 200 μl 0.75% H3PO4 using Millipore vacuum station • 15) Add 20 μl Szintilation Liquid to each well of MAPH Filter Plate • 16) Seal MAPH Filter Plate • 17) Store MAPH Filter Plate 30 min in darkness • 18) Quantify radioactivity

For assay [2], the target named is T1, viral kinase pUL-97 (Human cytomegalovirus, UniProt P16788).
T1 construct: The pUL-97 gene was cloned into a baculovirus vector; GST (glutathione S-transferase) (N); made in house; host or cells: Sf9 insect cells, baculovirus
T1 sequence (P16788 whole entry): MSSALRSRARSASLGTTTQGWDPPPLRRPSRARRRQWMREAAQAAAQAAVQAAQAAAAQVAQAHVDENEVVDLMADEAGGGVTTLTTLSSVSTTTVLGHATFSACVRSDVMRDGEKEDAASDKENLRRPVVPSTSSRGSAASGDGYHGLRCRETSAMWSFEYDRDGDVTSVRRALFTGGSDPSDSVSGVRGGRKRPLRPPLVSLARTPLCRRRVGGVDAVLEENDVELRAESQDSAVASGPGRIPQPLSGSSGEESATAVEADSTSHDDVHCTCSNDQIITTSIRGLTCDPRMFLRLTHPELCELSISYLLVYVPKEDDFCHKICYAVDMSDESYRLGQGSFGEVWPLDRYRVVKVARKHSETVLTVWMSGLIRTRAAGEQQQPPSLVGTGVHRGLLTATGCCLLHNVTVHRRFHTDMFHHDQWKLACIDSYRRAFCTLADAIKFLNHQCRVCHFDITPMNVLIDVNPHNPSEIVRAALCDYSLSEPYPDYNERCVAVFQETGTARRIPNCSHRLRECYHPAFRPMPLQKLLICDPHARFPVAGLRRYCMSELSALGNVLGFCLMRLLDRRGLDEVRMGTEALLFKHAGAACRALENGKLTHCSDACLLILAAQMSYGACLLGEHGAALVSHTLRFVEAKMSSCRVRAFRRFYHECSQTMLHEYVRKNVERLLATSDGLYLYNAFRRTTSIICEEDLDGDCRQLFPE
As to the kind of experiment: UL97 kinase assay on Immobilon plate. The assay is classed as biochemical. The procedure, abridged:
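Compound was titrated into a radiometric reaction of Sf9-expressed GST-UL97 kinase, incubated 1 h at 30 °C in Tris-HCl pH 7.5/MnCl2/DTT buffer before EDTA stop. MBP substrate and ATP (3 μM in the added assay buffer) were supplied with γ-[33P]ATP. Labelled product bound to Immobilon filter was washed and counted by scintillation.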

Assay [3] concerns the target RICK (Homo sapiens, UniProt O43353). Put plainly: General kinase assay protocol (33P-ATP, MBP substrate, filter plate): RICK. The assay is classed as biochemical. Particulars: inhibition at concentration 10 μM; read-out: Inhibitory effect on Target RICK.
Description: as §1, §2

For assay [4], the target named is CDK9 (Homo sapiens, UniProt P50750). As to the kind of experiment: General kinase assay protocol (33P-ATP, MBP substrate, filter plate): CDK9. The assay is classed as biochemical. Particulars: inhibition at concentration 10 μM; read-out: Inhibitory effect on Target CDK9. The method, then: as §1, §2, §3, §4
Sequence of CDK9 (P50750 whole entry, species assumed): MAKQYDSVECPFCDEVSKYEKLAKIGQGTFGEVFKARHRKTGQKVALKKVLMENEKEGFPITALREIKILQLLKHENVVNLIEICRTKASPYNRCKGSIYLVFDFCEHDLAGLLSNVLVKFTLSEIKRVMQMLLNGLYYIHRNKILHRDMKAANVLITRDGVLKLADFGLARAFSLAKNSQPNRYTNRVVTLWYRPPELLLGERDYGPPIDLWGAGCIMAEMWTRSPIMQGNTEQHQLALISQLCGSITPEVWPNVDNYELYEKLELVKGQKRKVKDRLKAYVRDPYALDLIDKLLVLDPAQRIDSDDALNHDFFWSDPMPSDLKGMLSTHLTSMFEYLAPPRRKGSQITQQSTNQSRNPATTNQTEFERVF
Sequence of CDK9 (O60563 whole entry partner, species assumed): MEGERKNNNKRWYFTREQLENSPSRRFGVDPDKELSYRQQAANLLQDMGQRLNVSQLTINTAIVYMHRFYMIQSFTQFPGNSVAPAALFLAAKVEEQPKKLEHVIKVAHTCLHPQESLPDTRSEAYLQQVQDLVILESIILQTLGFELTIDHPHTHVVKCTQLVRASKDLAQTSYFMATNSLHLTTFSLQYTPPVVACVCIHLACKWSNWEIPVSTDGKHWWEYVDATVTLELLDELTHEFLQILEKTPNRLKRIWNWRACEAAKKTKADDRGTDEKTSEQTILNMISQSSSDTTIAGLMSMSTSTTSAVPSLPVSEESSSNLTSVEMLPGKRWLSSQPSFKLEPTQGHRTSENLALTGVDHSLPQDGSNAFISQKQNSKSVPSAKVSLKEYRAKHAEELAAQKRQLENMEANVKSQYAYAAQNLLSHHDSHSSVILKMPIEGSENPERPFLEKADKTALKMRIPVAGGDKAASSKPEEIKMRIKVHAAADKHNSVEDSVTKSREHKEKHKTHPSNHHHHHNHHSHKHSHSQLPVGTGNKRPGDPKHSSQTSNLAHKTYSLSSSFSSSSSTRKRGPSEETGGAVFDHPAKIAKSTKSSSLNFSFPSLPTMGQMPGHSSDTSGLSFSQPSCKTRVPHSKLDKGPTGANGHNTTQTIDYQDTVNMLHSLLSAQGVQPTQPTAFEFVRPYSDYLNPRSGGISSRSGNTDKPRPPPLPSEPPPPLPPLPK
Assay [5] deals with HCMV strain AD169. As to the kind of experiment: HCMV replication assay (reporter gene) in human foreskin fibroblasts. The assay is classed as cell-based, human cytomegalovirus. Conditions: Human betaherpesvirus 5; HCMV strain AD169 in HFF cells; read-out: IC50 in inhibiting replication of HCMV. The method, then:
To examine the effect of the pyrazine derivatives on HCMV replication, HCMV infections were performed in a cellular system.
Human foreskin fibroblasts (HFFs) were grown to subconfluency in 12 well plates and infected with 0.25 tissue culture infectious doses of HCMV AD-169 carrying a reporter gene (HCMV based antiviral assay). Pyrazine derivatives (stocks in DMSO (Dimethylsulfoxide)) were diluted in culture medium to the concentrations indicated and added to the cells immediately after virus adsorption. The success of infection (reporter gene expressing cells) and the lack of cytotoxicity of the compound (confluent cell layer) was monitored by microscopy. After seven days, cell layers were harvested, lysed and subjected to the automated fluorometry measurement of reporter gene activity. Each panel refers to a determination in quadruplicate (infection in duplicate, lysate preparation and measurement in duplicate).
For orientation: Reporter assays use an easily measured gene product as a stand-in for the process of interest.

The mark [6] stands for this setting: inhibition of UL 97 kinase activity, class by IC50 / % inhibition at 10 or 100 μM, read-out: Activity Class [A, B, C].

Read-outs that look alike come from different tables or passages of the source.

Sequence of RICK (O43353 whole entry, species assumed): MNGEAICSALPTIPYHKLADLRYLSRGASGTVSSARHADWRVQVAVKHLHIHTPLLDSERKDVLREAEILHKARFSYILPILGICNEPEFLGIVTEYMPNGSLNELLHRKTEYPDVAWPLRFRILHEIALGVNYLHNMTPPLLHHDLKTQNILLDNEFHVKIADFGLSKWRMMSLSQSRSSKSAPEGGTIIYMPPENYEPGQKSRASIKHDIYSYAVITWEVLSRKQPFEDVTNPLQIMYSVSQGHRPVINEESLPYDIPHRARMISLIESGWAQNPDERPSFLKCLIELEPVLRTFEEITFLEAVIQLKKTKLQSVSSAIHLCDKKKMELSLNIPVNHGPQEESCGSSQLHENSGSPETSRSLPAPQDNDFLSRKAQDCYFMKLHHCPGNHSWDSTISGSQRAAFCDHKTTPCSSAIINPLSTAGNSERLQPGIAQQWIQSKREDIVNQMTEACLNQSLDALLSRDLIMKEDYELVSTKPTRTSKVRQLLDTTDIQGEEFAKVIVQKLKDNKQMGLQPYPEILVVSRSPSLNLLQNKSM

Consider `CN(C)CCNC(=O)c1cccc(-c2cncc(Nc3ccc(C#N)c(Cl)c3)n2)c1` [Comp. 22, 3-[6-(3-Chloro-4-cyano-phenylamino)-pyrazin-2-yl]-N-(2-dimethylamino-ethyl)-benzamide], for which the inhibition at 10 µM in assay [1] was over 75%. In assay [2], this compound registered an IC50 of under 1 µM.
Turning to `Oc1cccc(-c2cncc(Nc3ccc(F)c(Cl)c3)n2)c1` [compound 417], the inhibition at 10 µM in assay [3] was over 50%.
For `CC(=O)Nc1cccc(-c2cncc(Nc3ccc4c(c3)OC(F)(F)C(F)(F)O4)n2)c1` [compound 403], in assay [4], the inhibition at 10 µM is over 50%.
In the case of `CN(C)CCNC(=O)c1cccc(-c2cncc(Nc3ccc(Cl)cc3)n2)c1` [Comp. 381], the inhibition at 10 µM in assay [3] and in assay [4] was over 50% each time.
As to `Nc1cccc(-c2cncc(Nc3ccc(Cl)cc3)n2)c1` [compound 380], the inhibition at 10 µM in assay [3] was over 50%.
`OCc1ccccc1-c1cncc(Nc2ccc(Cl)cc2)n1` [compound 420]: the inhibition at 10 µM in assay [3] was over 50%.
Take `COc1cc(Nc2cncc(-c3ccc4ccccc4c3)n2)cc(OC)c1OC` [compound 402]: the inhibition at 10 µM in assay [3] was over 75%.
Consider `Nc1ncc(-c2ccc(O)cc2)nc1Nc1ccc2[nH]ccc2c1` [compound 428], for which the inhibition at 10 µM in assay [3] is over 50%.
Consider `CN(C)c1cccc(-c2cncc(Nc3cccc(C#N)c3)n2)c1` [compound 391], for which the inhibition at 10 µM in assay [3] was over 50%.
Regarding `COc1cc(Nc2cncc(-c3ccc(N)cc3)n2)cc(OC)c1OC` [compound 398], the inhibition at 10 µM in assay [3] is over 75%.
For the compound `Cc1ccc(Nc2cncc(-c3ccc(F)cc3F)n2)cc1NS(C)(=O)=O` [compound 410], the inhibition at 10 µM in assay [3] was over 50%.
For the compound `CC(=O)Nc1ccc(-c2cncc(Nc3ccccc3)n2)cc1` [Comp. 401], the inhibition at 10 µM in assay [1] is over 50%.
As for `Oc1ccc(-c2cncc(Nc3cccc(C(F)(F)F)c3)n2)cc1` [compound 29, 4-[6-(3-Trifluoromethyl-phenylamino)-pyrazin-2-yl]-phenol], the inhibition at 10 µM in assay [3] was over 50%. Besides, in assay [2] (setting [6]), the IC50 was under 1 µM.
For the compound `Oc1ccc(-c2cncc(Nc3ccc(F)c(Cl)c3)n2)cc1` [Comp. 11], the inhibition at 10 µM was over 50% in assay [3] and over 75% in assay [4]. Further, in assay [2] (setting [6]), the IC50 is under 1 µM.
Regarding `COc1cc(Nc2cncc(-c3cccc(F)c3)n2)cc(OC)c1OC` [Comp. 7, [6-(3-Fluoro-phenyl)-pyrazin-2-yl]-(3,4,5-trimethoxy-phenyl)-amine], the inhibition at 10 µM in assay [3] was over 50%. In addition, the IC50 in assay [2] (setting [6]) fell in the range of 1 to 10 µM.
Consider `COc1cc(Nc2cncc(-c3cccc(O)c3)n2)cc(OC)c1OC` [compound 423], for which the inhibition at 10 µM in assay [3] was over 50%.
Turning to `CC(=O)Nc1ccc(-c2cncc(Nc3ccc(Cl)cc3)n2)cc1` [compound 397], the inhibition at 10 µM in assay [4] was over 50%.
Turning to `COc1cccc(-c2cnc(N)c(Nc3ccc4[nH]ccc4c3)n2)c1` [compound 432], the inhibition at 10 µM in assay [3] was over 75%.
As for `COc1ccc(-c2cncc(Nc3cccc(C#N)c3)n2)cc1` [compound 388], in assay [3], the inhibition at 10 µM is over 50%.
Same read-out and setting: the value for `COc1cc(-c2cncc(Nc3ccc(F)c(Cl)c3)n2)cc(OC)c1OC` [compound 382] was over 50%.
The same measure, in the same setting: then `Oc1ccc(-c2cncc(Nc3ccccc3)n2)cc1` [compound 386], with over 75%.
Consider `Nc1nc(O)c2ncn(COC(CO)CO)c2n1` [ganciclovir], for which the IC50 in assay [5] was 3 to 4 µM.
On to `COc1ccc(N2CCN(c3cncc(-c4cccc5ccccc45)n3)CC2)cc1OC` [compound 43, 4-(3,4-Dimethoxy-phenyl)-6′-naphthalen-1-yl-3,4,5,6-tetrahydro-2H-[1,2′]bipyrazinyl], for which the IC50 in assay [2] (setting [6]) is 10 to 100 µM.
Turning to `CC(C)(C)c1ccc(-c2cncc(N3CCN(c4cnccn4)CC3)n2)cc1` [compound 333, 6-(4-tert-Butyl-phenyl)-2′,3′,5′,6′-tetrahydro-[2,1′;4′,2″]terpyrazine], in assay [2] (inhibition of UL 97 kinase activity, class by IC50 / % inhibition at 10 μM or 100 μM, read-out: Activity Class [A, B, C]), the IC50 lay in the range of 10 to 100 µM.
As to `COc1ccccc1N1CCN(c2cncc(-c3ccc(C(C)(C)C)cc3)n2)CC1` [compound 88, 6′-(4-tert-Butyl-phenyl)-4-(2-methoxy-phenyl)-3,4,5,6-tetrahydro-2H-[1,2′]bipyrazinyl], the IC50 in assay [2] (setting [6]) fell in the range of 10 to 100 µM.
As to `NC(=O)c1ccc(-c2cncc(N3CCN(c4ccccn4)CC3)n2)cc1` [Comp. 15, 4-(4-Pyridin-2-yl-3,4,5,6-tetrahydro-2H-[1,2′]bipyrazinyl-6′-yl)-benzamide], the IC50 in assay [2] (setting [6]) was under 1 µM.
